Measurements published in patent US11440913B2, “Aminoimidazopyridazines as kinase inhibitors” (BRISTOL-MYERS SQUIBB COMPANY, priority 2017, dated 2022).

Experiments:
[1] = system: MLKL phosphorylation in HT29-L23 human colorectal adenocarcinoma cells; experiment: MLKL Phosphorylation High-Content Assay; assay type: cell-based; conditions: Homo sapiens, 6 h, necroptosis induced with TNFα, SMAC mimetic and Z-VAD, read-out: pMLKL (IC50)
How it was run: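 HT29-L23 cells pretreated 30 min at 37 °C with compound (6.25 to 0.106 μM final), then necroptosis induced with TNFα 35 ng/mL, SMAC mimetic 700 nM and Z-VAD 140 nM for 6 h. Fixed cells immunostained for MLKL pS358 and imaged; IC50 and Ymax from 4-parameter logistic fit.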

[2] = biological target: His-GST-TVMV-hRIPK1(1-324) (Homo sapiens (Human), UniProt Q13546); experiment: RIPK1 HTRF Binding Assay; conditions: HTRF binding, 1 h at rt; read-out: RIPK1 (IC50)
Chain of His-GST-TVMV-hRIPK1(1-324) (Q13546 1-324): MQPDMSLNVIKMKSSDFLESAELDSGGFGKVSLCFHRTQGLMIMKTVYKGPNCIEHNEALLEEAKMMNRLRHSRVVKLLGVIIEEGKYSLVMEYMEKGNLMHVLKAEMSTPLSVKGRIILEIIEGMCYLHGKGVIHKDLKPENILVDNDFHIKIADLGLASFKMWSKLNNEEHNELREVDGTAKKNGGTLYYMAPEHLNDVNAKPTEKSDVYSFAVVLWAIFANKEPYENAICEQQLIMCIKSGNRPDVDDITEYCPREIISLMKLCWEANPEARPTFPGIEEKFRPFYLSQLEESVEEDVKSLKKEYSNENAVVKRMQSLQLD
How it was run: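 HTRF probe-displacement binding: 1 nM His-GST-TVMV-hRIPK1(1-324) (baculovirus construct), 90.6 nM probe, 0.2 nM anti-GST-Tb in 20 mM HEPES, 10 mM MgCl2, 0.015% Brij-35, 4 mM DTT, 0.05 mg/mL BSA. Incubated 1 h at rt; FRET 520/495 nm ratio, inhibition relative to DMSO-only wells.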

Compound: COc1ncc(-c2ccc3nc(NC(C)=O)cn3n2)cc1C(=O)NCc1ccccc1-n1cccc1 [Example 160, 5-{2-acetamidoimidazo[1,2-b]pyridazin-6-yl}-2-methoxy-N-{[2-(1H-pyrrol-1-yl)phenyl]methyl}pyridine-3-carboxamide]
- IC50 [1]: 331 nM
- IC50 [2]: 489 nM

Compound: COc1ncc(-c2ccc3nc(NC(C)=O)cn3n2)cc1C(=O)NC[C@H]1C[C@@H]1c1ccc(F)cc1 [Example 161, 5-{2-acetamidoimidazo[1,2-b]pyridazin-6-yl}-N-{[(1S,2S)-2-(4-fluorophenyl)cyclopropyl]methyl}-2-methoxypyridine-3-carboxamide]
- IC50 [1]: 311 nM
- IC50 [2]: 145 nM

Compound: COc1ncc(-c2ccc3nc(NC(C)=O)cn3n2)cc1C(=O)NCc1ccccc1N1CCOCC1 [Example 162, 5-{2-acetamidoimidazo[1,2-b]pyridazin-6-yl}-2-methoxy-N-{[2-(morpholin-4-yl)phenyl]methyl}pyridine-3-carboxamide]
- IC50 [1]: 140 nM
- IC50 [2]: 64 nM

Compound: COc1ncc(-c2ccc3nc(NC(C)=O)cn3n2)cc1C(=O)NCc1ncccc1OC1CCCC1 [Example 163, N-{[3-(cyclopentyloxy)pyridin-2-yl]methyl}-5-{2-acetamidoimidazo[1,2-b]pyridazin-6-yl}-2-methoxypyridine-3-carboxamide]
- IC50 [1]: 17 nM
- IC50 [2]: 12 nM

Compound: COc1ncc(-c2ccc3nc(NC(C)=O)cn3n2)cc1C(=O)NCc1ccccc1OCC1CCCC1 [Example 164, N-{[2-(cyclopentylmethoxy)phenyl]methyl}-5-{2-acetamidoimidazo[1,2-b]pyridazin-6-yl}-2-methoxypyridine-3-carboxamide]
- IC50 [1]: 32 nM
- IC50 [2]: 10 nM

Compound: COc1ncc(-c2ccc3nc(NC(C)=O)cn3n2)cc1C(=O)NCc1ccccc1OC(C)C [Example 165, 5-{2-acetamidoimidazo[1,2-b]pyridazin-6-yl}-2-methoxy-N-{[2-(propan-2-yloxy)phenyl]methyl}pyridine-3-carboxamide]
- IC50 [1]: 11 nM
- IC50 [2]: 4 nM

Compound: COc1ncc(-c2ccc3nc(NC(C)=O)cn3n2)cc1C(=O)NCc1cc(F)ccc1OC1CCCC1 [Example 166, N-{[2-(cyclopentyloxy)-5-fluorophenyl]methyl}-5-{2-acetamidoimidazo[1,2-b]pyridazin-6-yl}-2-methoxypyridine-3-carboxamide]
- IC50 [1]: 1 nM
- IC50 [2]: 4 nM

Compound: [2H]C([2H])([2H])Oc1nc(C)c(-c2ccc3nc(NC(C)=O)cn3n2)cc1C(=O)NCc1cc(F)cc(F)c1OC1CC(C)OC(C)C1 (stereo not drawn) [Example 167, N-({2-[(2,6-dimethyloxan-4-yl)oxy]-3,5-difluorophenyl}methyl)-5-{2-acetamidoimidazo[1,2-b]pyridazin-6-yl}-2-(deutero)methoxy-6-methylpyridine-3-carboxamide]
- IC50 [1]: 13 nM
- IC50 [2]: 18 nM

Compound: [2H]C([2H])([2H])Oc1nc(C)c(-c2ccc3nc(NC(C)=O)cn3n2)cc1C(=O)NCc1cccc(F)c1OC1C[C@@H](C)O[C@@H](C)C1 (stereo partly drawn) [Example 168, N-[(2-{[(2R,6S)-2,6-dimethyloxan-4-yl]oxy}-3-fluorophenyl)methyl]-5-{2-acetamidoimidazo[1,2-b]pyridazin-6-yl}-2-(deutero)methoxy-6-methylpyridine-3-carboxamide]
- IC50 [1]: 67 nM
- IC50 [2]: 21 nM

Compound: [2H]C([2H])([2H])Oc1nc(C)c(-c2ccc3nc(NC(C)=O)cn3n2)cc1C(=O)NCc1cc(F)cc(F)c1O[C@@H]1CCOC1 [Example 169, N-({3,5-difluoro-2-[(3R)-oxolan-3-yloxy]phenyl}methyl)-5-{2-acetamidoimidazo[1,2-b]pyridazin-6-yl}-2-(deutero)methoxy-6-methylpyridine-3-carboxamide]
- IC50 [1]: 10 nM
- IC50 [2]: 3 nM

Compound: [2H]C([2H])([2H])Oc1nc(C)c(-c2ccc3nc(NC(C)=O)cn3n2)cc1C(=O)NCc1cc(F)cc(F)c1O[C@H]1CCOC1 [Example 171, N-({3,5-difluoro-2-[(3S)-oxolan-3-yloxy]phenyl}methyl)-5-{2-acetamidoimidazo[1,2-b]pyridazin-6-yl}-2-(deutero)methoxy-6-methylpyridine-3-carboxamide]
- IC50 [1]: 3 nM
- IC50 [2]: 3 nM

Compound: [2H]C([2H])([2H])Oc1nc(C)c(-c2ccc3nc(NC(C)=O)cn3n2)cc1C(=O)NCc1cc(F)cc(F)c1OC1CCOC(C)C1 (stereo not drawn) [Example 172, N-({3,5-difluoro-2-[(2-methyloxan-4-yl)oxy]phenyl}methyl)-5-{2-acetamidoimidazo[1,2-b]pyridazin-6-yl}-2-(deutero)methoxy-6-methylpyridine-3-carboxamide]
- IC50 [1]: 16 nM
- IC50 [2]: 15 nM

Compound: [2H]C([2H])([2H])Oc1nc(C)c(-c2ccc3nc(NC(C)=O)cn3n2)cc1C(=O)NCc1c(F)cccc1OCC(F)(F)F [Example 173, 5-{2-acetemidoimidazo[1,2-b]pyridazin-6-yl}-N-{[2-fluoro-6-(2,2,2-trifluoroethoxy)phenyl]methyl}-2-(deutero)methoxy-6-methylpyridine-3-carboxamide]
- IC50 [1]: 2 nM
- IC50 [2]: 3 nM

Compound: [2H]C([2H])([2H])Oc1nc(C)c(-c2ccc3nc(NC(C)=O)cn3n2)cc1C(=O)NCc1cc(F)cc(F)c1OC([2H])([2H])C1CC1 [Example 174, N-({2-[cyclopropyl(deutero)methoxy]-3,5-difluorophenyl}methyl)-5-{2-acetamidoimidazo[1,2-b]pyridazin-6-yl}-2-(deutero)methoxy-6-methylpyridine-3-carboxamide]
- IC50 [1]: 1 nM
- IC50 [2]: 3 nM

Compound: [2H]C([2H])([2H])Oc1nc(C)c(-c2ccc3nc(NC(C)=O)cn3n2)cc1C(=O)NC([2H])([2H])c1cc(OC(F)(F)F)ccc1F [Example 175, 5-{2-acetamidoimidazo[1,2-b]pyridazin-6-yl}-N-{[2-fluoro-5-(trifluoromethoxy)phenyl](deutero)methyl}-2-(deutero)methoxy-6-methylpyridine-3-carboxamide]
- IC50 [1]: 16 nM
- IC50 [2]: 4 nM

Compound: [2H]C([2H])([2H])Oc1nc(C)c(-c2ccc3nc(NC(C)=O)cn3n2)cc1C(=O)NCc1ccc(F)c(F)c1OCC1CC1 [Example 176, N-{[2-(cyclopropylmethoxy)-3,4-difluorophenyl]methyl}-5-{2-acetamidoimidazo[1,2-b]pyridazin-6-yl}-2-(deutero)methoxy-6-methylpyridine-3-carboxamide]
- IC50 [1]: 12 nM
- IC50 [2]: 10 nM

Compound: [2H]C([2H])([2H])Oc1nc(C)c(-c2ccc3nc(NC(C)=O)cn3n2)cc1C(=O)NCc1cc(F)cc(F)c1OCC1CC1 [Example 177, N-{[2-(cyclopropylmethoxy)-3,5-difluorophenyl]methyl}-5-{2-acetamidoimidazo[1,2-b]pyridazin-6-yl}-2-(deutero)methoxy-6-methylpyridine-3-carboxamide]
- IC50 [1]: 3 nM
- IC50 [2]: 2 nM

Compound: [2H]C([2H])([2H])Oc1nc(C)c(-c2ccc3nc(NC(C)=O)cn3n2)cc1C(=O)NCc1ccccc1OC(F)(F)F [Example 178, 5-{2-acetamidoimidazo[1,2-b]pyridazin-6-yl}-2-(deutero) methoxy-6-methyl-N-{[2-(trifluoromethoxy)phenyl]methyl} pyridine-3-carboxamide]
- IC50 [1]: 20 nM
- IC50 [2]: 4 nM
